The source of these data is the OligoGym collection.

Oligonucleotides are written 5' to 3', each unit as a sugar letter and its base; * is a phosphorothioate linkage, no mark a phosphodiester; rarer units and linkages stand in square brackets, end groups in braces. Plain capitals give the bases only. d = 2'-deoxy (DNA); r = 2'-OH (RNA)
Further: test concentration or dose not given here.

The data set concerns the target UBE2C. The data set can be described thus: reporter assay of Huesken 2005. The note with it: siRNA. Background: A reporter such as luciferase makes a cellular process visible.
In the case of “sense rUrGrArArCrArCrArCrArUrGrCrUrGrCrCrGrAdTdT / antisense rUrCrGrGrCrArGrCrArUrGrUrGrUrGrUrUrCrAdAdG”, the normalised inhibition (eCFP-eYFP dual reporter) was found to be 86.5%. For “sense rCrCrArCrArGrUrGrArArGrUrUrCrCrUrCrArCdTdT / antisense rGrUrGrArGrGrArArCrUrUrCrArCrUrGrUrGrGdGdC”, the normalised inhibition (eCFP-eYFP dual reporter) stood at 74.3%. Substance “sense rUrGrArGrGrUrArUrArArGrCrUrCrUrCrGrCrUdTdT / antisense rArGrCrGrArGrArGrCrUrUrArUrArCrCrUrCrAdGdG” yielded a normalised inhibition (eCFP-eYFP dual reporter) of 80.6%. In the case of “sense rCrArUrUrCrUrGrCrUrCrUrCrCrArUrCrCrArGdTdT / antisense rCrUrGrGrArUrGrGrArGrArGrCrArGrArArUrGdGdT”, the normalised inhibition (eCFP-eYFP dual reporter) was found to be 79.7%. “sense rArGrUrUrCrCrUrCrArCrGrCrCrCrUrGrCrUrAdTdT / antisense rUrArGrCrArGrGrGrCrGrUrGrArGrGrArArCrUdTdC”: the normalised inhibition (eCFP-eYFP dual reporter) turned out to be 84.4%.

“sense rCrUrUrCrUrArGrGrArGrArArCrCrCrArArCrAdTdT / antisense rUrGrUrUrGrGrGrUrUrCrUrCrCrUrArGrArArGdGdC” registered a normalised inhibition (eCFP-eYFP dual reporter) of 86.1%. As to “sense rGrCrUrArGrArGrUrUrCrCrCrCrArGrUrGrGrCdTdT / antisense rGrCrCrArCrUrGrGrGrGrArArCrUrCrUrArGrCdGdA”, the normalised inhibition (eCFP-eYFP dual reporter) is 69%. “sense rArArGrUrUrCrCrUrCrArCrGrCrCrCrUrGrCrUdTdT / antisense rArGrCrArGrGrGrCrGrUrGrArGrGrArArCrUrUdCdA” came in with a normalised inhibition (eCFP-eYFP dual reporter) of 51%. Under “sense rGrCrGrCrCrCrArCrArGrUrGrArArGrUrUrCrCdTdT / antisense rGrGrArArCrUrUrCrArCrUrGrUrGrGrGrCrGrCdAdT” stands 70.9%. As to “sense rArCrArGrUrArUrArUrGrArArGrArCrCrUrGrAdTdT / antisense rUrCrArGrGrUrCrUrUrCrArUrArUrArCrUrGrUdTdC”, the normalised inhibition (eCFP-eYFP dual reporter) was 88.1%. “sense rArCrArUrCrCrUrGrArArGrGrArArArArGrUrGdTdT / antisense rCrArCrUrUrUrUrCrCrUrUrCrArGrGrArUrGrUdCdC” registered a normalised inhibition (eCFP-eYFP dual reporter) of 46.2%. As to “sense rCrArGrGrArCrCrArUrUrCrUrGrCrUrCrUrCrCdTdT / antisense rGrGrArGrArGrCrArGrArArUrGrGrUrCrCrUrGdAdC”, the normalised inhibition (eCFP-eYFP dual reporter) turned out to be 45.4%.

The substance “sense rArUrGrGrArGrCrArGrCrUrGrGrArArCrArGrUdTdT / antisense rArCrUrGrUrUrCrCrArGrCrUrGrCrUrCrCrArUdGdG” gave a normalised inhibition (eCFP-eYFP dual reporter) of 84.5%.

“sense rGrGrUrCrUrGrCrCrCrUrGrUrArUrGrArUrGrUdTdT / antisense rArCrArUrCrArUrArCrArGrGrGrCrArGrArCrCdAdC”: the normalised inhibition (eCFP-eYFP dual reporter) worked out at 55.5%. Substance “sense rArCrArUrUrGrArUrArGrUrCrCrCrUrUrGrArAdTdT / antisense rUrUrCrArArGrGrGrArCrUrArUrCrArArUrGrUdTdG” had a normalised inhibition (eCFP-eYFP dual reporter) of 90.8%.

Take “sense rGrArArCrArCrArCrArUrGrCrUrGrCrCrGrArGdTdT / antisense rCrUrCrGrGrCrArGrCrArUrGrUrGrUrGrUrUrCdAdA”: the normalised inhibition (eCFP-eYFP dual reporter) came out at 89.6%. As for “sense rArGrGrArGrArArCrCrCrArArCrArUrUrGrArUdTdT / antisense rArUrCrArArUrGrUrUrGrGrGrUrUrCrUrCrCrUdAdG”, the normalised inhibition (eCFP-eYFP dual reporter) was found to be 94.2%. “sense rGrCrCrCrUrGrCrUrArUrCrArCrCrCrCrArArCdTdT / antisense rGrUrUrGrGrGrGrUrGrArUrArGrCrArGrGrGrCdGdT” gave a normalised inhibition (eCFP-eYFP dual reporter) of 63.4%. Turning to “sense rGrArUrGrUrCrArGrGrArCrCrArUrUrCrUrGrCdTdT / antisense rGrCrArGrArArUrGrGrUrCrCrUrGrArCrArUrCdAdT”, the normalised inhibition (eCFP-eYFP dual reporter) is 48.8%. Consider “sense rUrGrGrUrCrUrGrCrCrCrUrGrUrArUrGrArUrGdTdT / antisense rCrArUrCrArUrArCrArGrGrGrCrArGrArCrCrAdCdT”, for which the normalised inhibition (eCFP-eYFP dual reporter) came to 28.6%. In the case of “sense rGrArGrCrArGrCrUrGrGrArArCrArGrUrArUrAdTdT / antisense rUrArUrArCrUrGrUrUrCrCrArGrCrUrGrCrUrCdCdA” it was 85.2%. In turn, “sense rCrCrCrUrGrCrUrArUrCrArCrCrCrCrArArCrGdTdT / antisense rCrGrUrUrGrGrGrGrUrGrArUrArGrCrArGrGrGdCdG” returned a normalised inhibition (eCFP-eYFP dual reporter) of 53.1%. For “sense rCrArCrCrCrCrArArCrGrUrGrGrArCrArCrCrCdTdT / antisense rGrGrGrUrGrUrCrCrArCrGrUrUrGrGrGrGrUrGdAdT”, the normalised inhibition (eCFP-eYFP dual reporter) was found to be 11.6%. Substance “sense rGrCrUrArUrCrArCrCrCrCrArArCrGrUrGrGrAdTdT / antisense rUrCrCrArCrGrUrUrGrGrGrGrUrGrArUrArGrCdAdG” registered a normalised inhibition (eCFP-eYFP dual reporter) of 89.4%. For “sense rCrArGrArGrCrCrUrUrCrUrArGrGrArGrArArCdTdT / antisense rGrUrUrCrUrCrCrUrArGrArArGrGrCrUrCrUrGdGdA”, the normalised inhibition (eCFP-eYFP dual reporter) amounted to 75.5%. The substance “sense rUrGrCrCrCrUrGrUrArUrGrArUrGrUrCrArGrGdTdT / antisense rCrCrUrGrArCrArUrCrArUrArCrArGrGrGrCrAdGdA” returned a normalised inhibition (eCFP-eYFP dual reporter) of 50.8%. Under “sense rUrArGrArGrUrUrCrCrCrCrArGrUrGrGrCrUrAdTdT / antisense rUrArGrCrCrArCrUrGrGrGrGrArArCrUrCrUrAdGdC” stands 67.2%; under “sense rCrGrCrUrArGrArGrUrUrCrCrCrCrArGrUrGrGdTdT / antisense rCrCrArCrUrGrGrGrGrArArCrUrCrUrArGrCrGdAdG”, 86.9%.

On to “sense rUrGrGrCrUrArCrCrCrUrUrArCrArArUrGrCrGdTdT / antisense rCrGrCrArUrUrGrUrArArGrGrGrUrArGrCrCrAdCdT”, for which the normalised inhibition (eCFP-eYFP dual reporter) was 61.3%. The substance “sense rGrArArGrUrUrCrCrUrCrArCrGrCrCrCrUrGrCdTdT / antisense rGrCrArGrGrGrCrGrUrGrArGrGrArArCrUrUrCdAdC” had a normalised inhibition (eCFP-eYFP dual reporter) of 40.9%. In turn, “sense rGrArArGrGrArArArArGrUrGrGrUrCrUrGrCrCdTdT / antisense rGrGrCrArGrArCrCrArCrUrUrUrUrCrCrUrUrCdAdG” had a normalised inhibition (eCFP-eYFP dual reporter) of 63.3%. The substance “sense rCrUrArUrCrArCrCrCrCrArArCrGrUrGrGrArCdTdT / antisense rGrUrCrCrArCrGrUrUrGrGrGrGrUrGrArUrArGdCdA” registered a normalised inhibition (eCFP-eYFP dual reporter) of 77.2%. Take “sense rCrCrCrCrArGrUrGrGrCrUrArCrCrCrUrUrArCdTdT / antisense rGrUrArArGrGrGrUrArGrCrCrArCrUrGrGrGrGdAdA”: the normalised inhibition (eCFP-eYFP dual reporter) worked out at 67.7%. Take “sense rArCrCrUrGrArGrGrUrArUrArArGrCrUrCrUrCdTdT / antisense rGrArGrArGrCrUrUrArUrArCrCrUrCrArGrGrUdCdT”: the normalised inhibition (eCFP-eYFP dual reporter) stood at 80.9%. Substance “sense rArCrGrUrGrGrArCrArCrCrCrArGrGrGrUrArAdTdT / antisense rUrUrArCrCrCrUrGrGrGrUrGrUrCrCrArCrGrUdTdG” displayed a normalised inhibition (eCFP-eYFP dual reporter) of 83%.
